Test systems include UACC-62 melanoma; CAKI-1 renal; SK-MEL-5 melanoma; HCT-15 colon; MDA-MB-231 breast; SF-295 CNS; RXF 393 renal; SK-OV-3 ovarian; LOX IMVI melanoma; HOP-92 NSCLC.
Experiment in all cases: NCI-60 cell line screen, 48 h

Where “and” joins values, the source holds several entries; their conditions need not be identical. Equal entries are not always repeated.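 Briefly, cells in 96-well plates were exposed to five compound concentrations for 48 h, and endpoints were estimated by linear interpolation. At the GI50, growth is halved. TGI: total growth inhibition.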 Some results are limits rather than exact numbers.

In the case of `Cc1ccc(C(CC(=O)c2ccccc2)C(C(=O)c2ccccc2)C(c2ccc(C)cc2)C2C(=O)NC(=S)NC2=O)cc1` (configuration not stated), the GI50 is 19.5 µM with UACC-62 melanoma; 7.7 µM with CAKI-1 renal; 10.6 µM in the assay with SK-MEL-5 melanoma; 17 µM with HCT-15 colon; 9.5 µM in the assay with MDA-MB-231 breast; 12.2 µM in the assay with SF-295 CNS. In addition, the GI50 in the assay with RXF 393 renal is 30.3 µM; with SK-OV-3 ovarian, above 50 µM; in the assay on LOX IMVI melanoma, 17 µM; in the assay with HOP-92 NSCLC it was 11 µM. The TGI was above 50 µM in the assay with UACC-62 melanoma; 35 µM in the assay on CAKI-1 renal; above 50 µM in the assay with SK-MEL-5 melanoma; above 50 µM in the assay on HCT-15 colon; above 50 µM in the assay on MDA-MB-231 breast; above 50 µM in the assay on SF-295 CNS. The TGI in the assay on RXF 393 renal, in the assay on SK-OV-3 ovarian, in the assay on LOX IMVI melanoma and in the assay on HOP-92 NSCLC was above 50 µM throughout.

Consider `C/C=C1\C[C@@H]2C(OC)Nc3cc(O)c(OC)cc3C(=O)N2C1` (some centres not stated), for which the GI50 was 0.00284 µM in the assay on UACC-62 melanoma; 0.00752 µM in the assay on CAKI-1 renal; 0.00327 µM in the assay on SK-MEL-5 melanoma; 0.00733 µM with HCT-15 colon; 0.0131 µM with MDA-MB-231 breast; 0.00328 µM with SF-295 CNS. The GI50 with RXF 393 renal was 0.00101 µM; with SK-OV-3 ovarian, 0.00827 µM; in the assay with LOX IMVI melanoma, 0.0035 µM; in the assay with HOP-92 NSCLC, 0.00738 µM. For the same compound, the TGI is 0.00948 µM with UACC-62 melanoma; 0.00889 µM in the assay with SK-MEL-5 melanoma; 0.0626 µM and 0.375 µM in the assay with MDA-MB-231 breast; 0.467 µM and 1.43 µM in the assay on SF-295 CNS; 0.00219 µM in the assay on RXF 393 renal; 2.37 µM with SK-OV-3 ovarian. Further, the TGI in the assay with LOX IMVI melanoma was 0.0825 µM; in the assay on HOP-92 NSCLC it was 0.129 µM and < 0.0137 µM.

`CN1CCN(CCCOc2ccc3nc(Nc4ccc(C(F)(F)F)c(Cl)c4)ccc3c2)CC1`: the GI50 in the assay with UACC-62 melanoma is 1.83 µM; in the assay with CAKI-1 renal, 1.72 µM; in the assay with SK-MEL-5 melanoma, 1.7 µM; in the assay on HCT-15 colon, 1.14 µM; with MDA-MB-231 breast it was 1.13 µM; in the assay on SF-295 CNS, 1.67 µM. The GI50 in the assay with RXF 393 renal was 1.42 µM; in the assay on SK-OV-3 ovarian it was 1.81 µM; in the assay with LOX IMVI melanoma, 1.07 µM; in the assay with HOP-92 NSCLC it was 1.15 µM. For the same compound, the TGI came to 3.88 µM in the assay on UACC-62 melanoma; 3.82 µM with CAKI-1 renal; 3.18 µM in the assay with SK-MEL-5 melanoma; 2.62 µM in the assay with HCT-15 colon; 2.75 µM in the assay on MDA-MB-231 breast; 3.2 µM in the assay on SF-295 CNS. In addition, the TGI in the assay with RXF 393 renal was determined as 3.03 µM; in the assay on SK-OV-3 ovarian, 3.49 µM; in the assay with LOX IMVI melanoma, 2.32 µM; in the assay on HOP-92 NSCLC, 2.94 µM.

As to `CNc1ccc(C(=O)CC(O)CCC(C)C2OC(=O)CC(O)CC(=O)CC(O)CC(O)CC(O)CC(O)CC3(O)CC(O)C(C(=O)NCCc4ccccn4)C(CC(OC4OC(C)C(O)C(N)C4O)/C=C/C=C/C=C/C=C\C=C/C=C/C=C/C2C)O3)cc1` (configuration not stated), the GI50 was 1.54 µM in the assay with UACC-62 melanoma; 0.165 µM in the assay on CAKI-1 renal; 0.157 µM in the assay with SK-MEL-5 melanoma; 4.75 µM in the assay with HCT-15 colon; 6.23 µM in the assay with MDA-MB-231 breast; 1.05 µM in the assay with SF-295 CNS. Also, the GI50 in the assay with RXF 393 renal was 1.05 µM; with SK-OV-3 ovarian, 2.32 µM; in the assay on LOX IMVI melanoma, 2.11 µM; with HOP-92 NSCLC, 1.48 µM. Further, the TGI was above 34.2 µM with UACC-62 melanoma; 0.633 µM in the assay with CAKI-1 renal; 0.447 µM with SK-MEL-5 melanoma; above 50 µM in the assay with HCT-15 colon; above 21.2 µM in the assay with MDA-MB-231 breast; 11.4 µM in the assay with SF-295 CNS. In addition, the TGI in the assay on RXF 393 renal is 30.4 µM; in the assay on SK-OV-3 ovarian it was above 50 µM; with LOX IMVI melanoma, above 50 µM; in the assay on HOP-92 NSCLC, 19.2 µM.

In the case of `C(=C\c1nc2ccccc2s1)/c1ccc(N2CCOCC2)s1`, the GI50 is 7.94 µM in the assay with UACC-62 melanoma; above 100 µM with CAKI-1 renal; 21.8 µM in the assay with SK-MEL-5 melanoma; 17.1 µM in the assay with HCT-15 colon; above 100 µM with MDA-MB-231 breast; 24.2 µM in the assay with SF-295 CNS. Also, the GI50 is 31.3 µM in the assay on RXF 393 renal, 90.7 µM in the assay with SK-OV-3 ovarian, 38.4 µM with LOX IMVI melanoma and 35.7 µM in the assay with HOP-92 NSCLC. For the same compound, the TGI was above 100 µM in the assay with UACC-62 melanoma; above 100 µM in the assay with CAKI-1 renal; above 100 µM in the assay on SK-MEL-5 melanoma; above 100 µM with HCT-15 colon; above 100 µM in the assay on MDA-MB-231 breast; 95.4 µM in the assay on SF-295 CNS. Also, the TGI in the assay with RXF 393 renal is above 100 µM; in the assay with SK-OV-3 ovarian, above 100 µM; in the assay with LOX IMVI melanoma it was above 100 µM; with HOP-92 NSCLC, 95.3 µM.

As to `Cc1cccc2c1NC(=O)C2(c1ccc(O)cc1)c1ccc(O)cc1`, the GI50 is 11.4 µM in the assay with UACC-62 melanoma; 26.2 µM in the assay with CAKI-1 renal; 15.9 µM in the assay with SK-MEL-5 melanoma; 0.53 µM with HCT-15 colon; 13.3 µM in the assay on MDA-MB-231 breast; 12.6 µM with SF-295 CNS. Moreover, the GI50 in the assay on RXF 393 renal was below 0.0181 µM; in the assay with SK-OV-3 ovarian it was 19.2 µM; in the assay with LOX IMVI melanoma, 6.76 µM; with HOP-92 NSCLC, 1.42 µM. Further, the TGI with UACC-62 melanoma was 35.1 µM; with CAKI-1 renal, above 100 µM; in the assay on SK-MEL-5 melanoma it was 33.2 µM; with HCT-15 colon it was above 100 µM; in the assay with MDA-MB-231 breast, 33.3 µM; in the assay with SF-295 CNS it was 38.1 µM. For the same compound, the TGI in the assay on RXF 393 renal is 0.709 µM; in the assay with SK-OV-3 ovarian, 42 µM; in the assay on LOX IMVI melanoma it was 25.6 µM; with HOP-92 NSCLC, 27.6 µM.

Turning to `Cc1nc2sc(C(=O)Nc3cccc(Cl)c3C)c(N)c2cc1C(=O)c1ccccc1`, the GI50 was 0.246 µM with UACC-62 melanoma; 0.214 µM in the assay with CAKI-1 renal; 0.278 µM in the assay on SK-MEL-5 melanoma; 0.226 µM in the assay on HCT-15 colon; 0.463 µM with MDA-MB-231 breast; 0.179 µM in the assay on SF-295 CNS. Further, the GI50 was 0.198 µM with RXF 393 renal, 0.229 µM in the assay with SK-OV-3 ovarian, 0.331 µM in the assay on LOX IMVI melanoma and 0.259 µM in the assay on HOP-92 NSCLC. Moreover, the TGI is above 50 µM in the assay with UACC-62 melanoma; above 50 µM in the assay with CAKI-1 renal; 6.13 µM with SK-MEL-5 melanoma; above 50 µM in the assay with HCT-15 colon; above 50 µM with MDA-MB-231 breast; above 10.6 µM in the assay on SF-295 CNS. Moreover, the figures for the TGI with SK-OV-3 ovarian, with LOX IMVI melanoma and with HOP-92 NSCLC were above 50 µM, above 50 µM and above 23.7 µM, respectively.
